Source: US20170042899A1, “Use of Tetrahydrobiopterine Derivatives in the Treatment and Nutrition of Patients With Amino Acid Metabolic Disorders” (BioMarin Pharmaceutical Inc., priority 2002, published 2017)

Columns and labels:
[1] = system: patients with a lack of tetrahydrobiopterine; conditions: more than 350 patients with a lack of tetrahydrobiopterine treated with the co-factor; cited from earlier work
[2] = system: persons with a deficiency in phenylalanine hydroxylase; test: In vivo analysis of L-[13C]phenylalanine oxidation (13CO2 breath test); set-up: species or system human
Text: In order to research the therapeutic effectiveness of tetrahydrobiopterine, one carries out a combined phenylalanine tetrahydrobiopterine stress test for diagnostic and analyzes the effect in vivo by means of determining the [^13C] phenylalanine oxidation rate and 38 persons with a deficiency in phenylalanine hydroxylase prior to and subsequent to the administration of tetrahydrobiopterine derivatives. The response to tetrahydrobiopterine was associated with certain genotypes, and we localized mutations on the basis of the structural models of the phenylalanine hydroxylase monomer and the therefrom derived protein misfolding.
The tests were carried out after a four hour fast in small children and an overnight fast in older children. Overall 6 mg L-[1^−13C] phenylalanine (Euriostop, Paris, France) per kilogram body weight were taken in orally. The tracer was dissolved in a 25% dextrose solution (2 mg per milliliter). Subsequently breath samples were taken over a period of 180 minutes and stored in air-free glass pipes until analysis by means of isotope mass spectroscopy (deltaS, Thermoquest, Bremen). The recapture of carbon-13 in the breath samples was calculated, as described by Treacy et al, wherein a total carbon dioxide of 300 mmol per hour×[…] of body surface was assumed. The ^13CO2-production was represented as a cumulative percentage rate of the calculated dose against time. The validity of the results in the newborn could have been influenced by the nutrition or the fact that the collection of the breath sample is more difficult with them than with older children. […] In cross section, less than one (older children) and less than two (newborns) of 27 sequential ^13CO2 measurements, which were obtained during the 180 minutes of an individual test, were not capable of interpretation.
Patients with various clinical stages of illness achieved basile cumulative ^13CO2 recapture rates, which respectively reflected their individual rest phenylalanine oxidation capacity (classic phenylketonurea, average value 1.4%; mild phenylketonurea, 3.1%; mild hyperphenylalaninamie, 5.6%; the healthy comparison group 9.0%). […] The rise was more clearly pronounced in patients with a mild phenylketonurea than in patients with a mild hyperphenylalaninamie (FIG. 2A). […] This is associated therewith that with longer therapies, also in the cases of hyperphenylalaninamie derivative, improvement by tetrahydrobiopterine could be achieved.

Serum residence time = conditions: in vivo
[3] = system: persons with a deficiency in phenylalanine hydroxylase; test: Combined phenylalanine and tetrahydrobiopterine exposure or stress test (phenylalanine concentration in blood); assay type: in vivo, human; conditions: for patients with a response to tetrahydrobiopterine: blood phenylalanine sank by at least 30% 15 hours after exposure
Text: In order to research the therapeutic effectiveness of tetrahydrobiopterine, one carries out a combined phenylalanine tetrahydrobiopterine stress test for diagnostic and analyzes the effect in vivo by means of determining the [^13C] phenylalanine oxidation rate and 38 persons with a deficiency in phenylalanine hydroxylase prior to and subsequent to the administration of tetrahydrobiopterine derivatives. The response to tetrahydrobiopterine was associated with certain genotypes, and we localized mutations on the basis of the structural models of the phenylalanine hydroxylase monomer and the therefrom derived protein misfolding. We obtained the written consent of the families of 38 children, which suffered from various subset forms of hyperphenylalaninamie. The classification occurred depending upon the plasma phenylalanine concentration prior to treatment: less than 600 μmol/l, mild hyperphenylalaninamie, n=10, age 15 days through 10 years; 600-1200 μmol/l, mild, n=21, age 8 days through 17 years; greater than 1200 μmol, classical phenylketonurea, n=7, age 1 day through 9 years. A defect in this tetrahydrobiopterine biosynthesis or in the recycling of the tetrahydrobiopterine was ruled out by an analysis of the pterine value in urine and the dihydropteridine-reductase activity in erythrocytes. We examined seven patients during the newborn period and 31 as they were already older. Afflicted siblings (n=5) were likewise included in the study, since it is known that non-genetic factors influence the phenylalanine homeostasis. The uptake of phenylalanine was accomplished in that the patients were allowed to take a meal with 100 mg phenylalanine per kilogram body weight. One hour after the end of the meal the patients took 20 mg tetrahydrobiopterine per kilogram (Schircks Laboratories, Jona, Switzerland). The phenylalanine concentration in blood was determined by an electro spray ionization tandem mass spectroscopy—prior to the uptake of phenylalanine and prior to and subsequent to (at 4, 8 and 15 hours) provocation or exposure to tetrahydrobiopterine. During the test phase the newborns were fed with mothers milk, while the older children received a standardized protein supply (10 mg phenylalanine per kg) between six and eight hours after the exposure to tetrahydrobiopterine. The patients were classified as reacting to tetrahydrobiopterine if the phenylalanine concentration in the blood 15 hours after the exposure to tetrahydrobiopterine sank by at least 30% in comparison to the value prior to the intake of tetrahydrobiopterine.

[4] = system: children with mild phenylketonurea; test: Long time treatment with tetrahydrobiopterine replacing the phenylalanine poor diet; assay type: in vivo, human; conditions: five children
Description: The families with five children aged from 4 to 14 years with mild phenylketonurea consented to a therapeutic test, in which the phenylalanine poor diet was replaced by an oral administration of tetrahydrobiopterine in daily doses between 7.1 and 10.7 mg/kg body weight. The treatment lasted 207±51.3 days (average±SD; length 166-263).

[5] = a patient with classic phenylketonurea

Compound	dose dependent undesired side effects [1]	total 13CO2 recapture after treatment ([2]; 10 mg/kg body weight, 24 hours, patients which had responded to the stress test)	persons reacting to tetrahydrobiopterine that achieved oxidation rates in a normal level ([2]; 27 persons reacting to tetrahydrobiopterine)	phenylalanine oxidation rate, change [2, 5]	patients which did not respond exhibiting a mild rise in phenylalanine oxidation ([2]; after short time therapy with tetrahydrobiopterine)	serum residence time (Serum residence time)	phenylalanine concentration in the blood after exposure ([3]; 23 of the 27 patients reacting to tetrahydrobiopterine)	patients in whom tetrahydrobiopterine significantly decreased the phenylalanine content in the blood and improved the phenylalanine oxidation ([3]; 27 of the 31 patients with mild hyperphenylalaninamie (n=10) or mild phenylketonurea (n=21))	phenylalanine concentration in blood, change [3, 5]	patients satisfying the criteria of a strong response to tetrahydrobiopterine ([3]; classical phenylketonurea (n=7))	patients with a response to tetrahydrobiopterine ([3]; mild hyperphenylalaninamie)	patients with a response to tetrahydrobiopterine ([3]; mild phenylketonurea)	phenylalanine concentration in the blood after exposure ([3]; patients which did not react)	phenylalanine concentration in blood during the pure cofactor treatment ([4]; diet replaced by tetrahydrobiopterine)	daily phenylalanine tolerance with treatment (range) ([4]; oral 7.1-10.7 mg/kg body weight daily)	daily phenylalanine tolerance with treatment (average±SD) ([4]; oral 7.1-10.7 mg/kg body weight daily, 207±51.3 days)
C[C@H](O)[C@H](O)[C@H]1CNc2[nH]c(N)nc(=O)c2N1.Cl.Cl [BIOPTEN, sapropterinhydrochloride]	interference with sleep, polyurea and thin stool															
C[C@H](O)[C@H](O)[C@H]1CNc2nc(N)[nH]c(=O)c2N1 [tetrahydrobiopterine, 5,6,7,8-tetrahydrobiopterine]		rose significantly	22 of the 27	improvement	8 of 11	approximately 8 hours	less than 200 μmol/l	87%	slight increase	none	all ten	17 of 21	exceeded 400 μmol/l	378 ± 173 µmol/L	17.9-90 mg/kg body weight	61.4±27.9 mg/kg body weight
